In paper PMC12703457, “Dynamic Anchoring of Peptides to the Extracellular Matrix Enabled by Boronic Acid” (Chembiochem, 2025):
“And” between values parts separate entries of the source, which are not always exact repeats. Equal entries are not always repeated. Where two headings read alike, the source gives them in different places. Bridge positions count the residues as written; N and C are the ends. Square brackets hold non-standard residues; d marks the D form. Peptide text beside a SMILES is read from it. * marks the point of attachment. Benzoyl(4-B(OH)2) = O=C(c1ccc(B(O)O)cc1)*; PEG6 = NCCOCCOCCOCCOCCOCCOCCC(=O)O

How the values were obtained:
fibronectin = assay: SDS‐PAGE of fibronectin incubated with boronic acid dye; assay type: binding; details: physiological pH; distinct fluorescence at 280 kDa
Experimental: Figure 1 A) Fluorescent microscopy of CDM. Green channel: Staining with 10 μM FL2 is shown. Red channel: Staining with a primary antibody (rabbit; Anti‐fibronectin) and secondary antibody (Anti‐Rabbit IgG, CFTM633) is shown. Third channel: Both channels are merged. The negative control was only stained with the antibodies. Every CDM with FL2 was washed several times with either pH 4.1, pH 7.4, or pH 9.4. B) SDS‐PAGE of fibronectin incubated with FL2 under different pH conditions. (1) FL2 incubation at pH 7.4. (2) FL2 incubation at pH 4.1. (3) Coomassie stain for fibronectin. M = molecular standard.
For quantification, fibronectin was immobilized on Enzyme‐Linked Immunosorbent Assay (ELISA) plates before incubation with FL2. Surfaces were similarly treated with acidic, neutral, and basic conditions, and the remaining fluorescence of FL2 was quantified with each washing step (Figure S1, Supporting Information).
SDS‐PAGE was performed as described.^[ [27] ^] For the separation of small molecular weight peptides, tricine‐gel‐electrophoresis (Novex 10–20% Tricine Gel, 1.0 mm × 12 well, Invitrogen by Thermo Fisher Scientific) was performed, using Mini Gel Tanks from Invitrogen under standardized conditions. […] The gel was destained with demineralized water or destaining buffer (10% 10x ws buffer, 20% methanol, 70% Mili‐Q water) and captured using a Gel‐Reader from BioRad.

[1] = ARS competition assay with D‐glucamine; assay type: binding; details: for Interaction with D‐glucamine in ARS competition assay: fluorescence decay at 572 nm, rising D‐glucamine concentrations, pH 7.4, n = 3; for Association constant K eq with D‐glucamine: ARS competition assay, pH 7.4, 0.1 M phosphate buffer, fluorescence at 572 nm, average of triplicate runs
Experimental: (§1) Affinity toward different monosaccharides was tested quantitatively by an Alizarin Red S (ARS) competition assay. ARS spectroscopic properties change upon the formation of a boronic ester with a boronic acid, resulting in fluorescence.^[ [4] ^, [19] ^] Additionally, the absorbance maximum of ARS shifts to shorter wavelengths upon ester formation, resulting in a color shift from red to orange, which facilitates the recognition of the formed bond (Figures S3 and S4, Supporting Information).
(§2) The assay was performed on a TECAN reader, Infinite M Plex, set up with 96‐well plates (Thermo Scientific, Nr. 137,103).

myostatin = biological target: T1, myostatin (Homo sapiens, UniProt O14793); assay: Myostatin inhibition assay, SMAD luciferase reporter in HEK SBE cells; assay type: cell-based
T1 construct: purchased Bio-techne (Minneapolis)
T1 sequence (O14793 267-375): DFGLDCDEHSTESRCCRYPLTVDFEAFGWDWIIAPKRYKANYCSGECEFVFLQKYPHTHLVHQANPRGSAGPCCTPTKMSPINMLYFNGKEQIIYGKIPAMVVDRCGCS
Experimental: D) Myostatin inhibition by different MI peptides as determined via SMAD luciferase reporter with HEK SBE cells. 100 % activity corresponds to 4 nM myostatin. Data are shown as mean ± STDEV (n = 3).
The inhibition of all three MI peptides by myostatin was tested using a reporter gene luciferase assay in HEK293 cells, which monitored SMAD phosphorylation in response to varying myostatin concentrations, as described.^[ [24] ^]
HEK SBE cells (HEK‐293 cells stably transfected with a pGl3ti vector containing a Smad binding element at the promoter of the firefly luciferase gene and a hygromycin resistance gene) were used as previously described.^[ [24] ^] […] The total protein concentration of each sample was determined by the Bradford Protein concentration assay. […] The absorbance was measured with a plate reader (Infinite 200 PRO, Tecan). […] The injector of the plate reader was primed with luciferase assay reagent. The plate reader was programmed to automatically inject 100 μL of the reagent into each well and immediately measure the luminescence for 10 s. […] Relative light units per μg of total protein were calculated to analyze the inhibition of myostatin by all three MI peptides.

[2] = Alizarin Red S (ARS) assay, association of boronic acid with ARS; assay type: binding; details: for Association constant K eq with ARS: ARS assay, pH 7.4, 0.1 M phosphate buffer, fluorescence at 572 nm, average of triplicate runs
Experimental: Affinity toward different monosaccharides was tested quantitatively by an Alizarin Red S (ARS) competition assay. ARS spectroscopic properties change upon the formation of a boronic ester with a boronic acid, resulting in fluorescence.^[ [4] ^, [19] ^] […] The affinity of aryl boronic acid to 1,2‐diols is known to be dependent on modifications of the underlying benzene.

[3] = ARS competition assay with D‐(‐)‐fructose; assay type: binding; details: for Association constant K eq with D‐(‐)‐fructose: ARS competition assay, pH 7.4, 0.1 M phosphate buffer, fluorescence at 572 nm, average of triplicate runs
Experimental: as §1, §2

[4] = ARS competition assay with D‐mannitol; assay type: binding; details: for Association constant K eq with D‐mannitol: ARS competition assay, pH 7.4, 0.1 M phosphate buffer, fluorescence at 572 nm, average of triplicate runs
Experimental: as §1, §2

[5] = UV‐VIS spectra, shift of ARS absorbance maximum upon ester formation; assay type: binding; details: UV‐VIS spectra in the presence of ARS
Source text: As a positive control, we used 4‐(dihydroxyboryl)benzoic acid coupled to the hydrophilic polymer PEG of 2000 Da, with a similar molecular weight. […] We continued to examine the binding of CBPA‐PEG‐MI to ARS in the presence of D‐glucamine, D‐(‐)‐fructose and D‐mannitol as a competition assay as outlined above (Figure 4B, Figure S11, Supporting Information).
Figure S10: UV-VIS spectra of various peptides bound to ARS or glucamine. CPBA was used as a positive control, while ARS serves as a negative control. (A) UV-VIS-spectra of the peptide CPBA-MI in the presence of ARS- or glucamine. (B) UV-VIS-spectra of the peptide CPBA-PEG-MI in the presence of ARS- or glucamine. (C) UV-VIS-spectra of the peptide Acetyl-MI in the presence of ARS- or glucamine.
Figure S11: Fluorescence decay at 572 nm measured in an ARS competition assay with CPBA-PEG-MI and the negative control acetyl-MI in the presence of rising concentrations of fructose (A) and mannitol (B) as model saccharides at pH 7.4.
Data are shown as mean ± STDEV (n = 3). […]

[6] = cited from earlier work
Experimental: Binding constants of boronic acids and diols have been previously linked to their pKA and pH environment, with phenylboronic acid (pKA = 8.8) showing a binding optimum with ARS at a pH of 7 (1.1 mM^−1).^[ [20] ^]

[7] = system: cell‐derived decellularized extracellular matrices (CDMs) from NIH‐3T3 fibroblasts; assay: Fluorescence imaging of CDMs with CPBA‐NQEQVSPL‐5/6‐carboxyrhodamine 110; assay type: binding, murine; details: fluorescence microscopy
Experimental: The hydrophilic PEG6 linker within the peptide structure was crucial to ensure sufficient water solubility.
For visualization of fibronectin, the CDMs were first blocked using 1x Roti‐Block for 60 min at RT and washed once with PBS. A combination of Rabbit Anti‐Fibronectin antibody (F3648) (1:400 in PBS, overnight at 4 °C) and Anti‐rabbit IgG (H + L), F(ab’)2 Fragment (Alexa Fluor 647 Conjugate) 4414 (1:200 in PBS, 90 min at RT) was used. […] The dye was removed, and the matrix was washed several times with one of […] different buffers (carbonate/bicarbonate, pH 9.4; 1x PBS, pH 7.4; 1x PBS, pH 8.0, and sodium‐acetate, pH 4.1). Images were taken on an Axio Observer.Z1 microscope equipped with a 63x Plan‐Apochromat […]/1.40 Oil DIC M77 objective (Zeiss), 38 HE Green Fluorescent Reflector (λex = 450–490 nm λem = 500–550 nm), 50 Cy5 Reflector (λex = 625–655 nm λem = 665–715 nm) and a mercury vapor short‐arc lamp.
Figure S9: (A) Fluorescent microscopy of CDM. Green channel: Staining with CBPA-[…]-5/6-Carboxyrhodamine
110 is shown. Red channel: Staining with a primary antibody (rabbit; Anti-fibronectin) and secondary antibody (Anti-Rabbit
IgG, AF647) is shown. Third channel: Both channels are merged. The negative control was only stained with the antibodies.
Every CDM with the CPBA-Peptide was washed several times with either pH 4.1, pH 7.4, pH 8.0 or pH 9.4. […]

[8] = fluorescence decay at 572 nm, rising sugar concentrations, pH 7.4, n = 3

## O=C1c2ccccc2C(=O)c2c1cc(S(=O)(=O)O)c(O)c2O [ARS, Alizarin Red S]
fibronectin
  Binding to fibronectin after gel electrophoresis: confirmed

## CSCC[C@@H]1NC(=O)[C@H](Cc2c[nH]c3ccccc23)NC(=O)[C@@H]2CCCN2C(=O)[C@H](Cc2c[nH]c3ccccc23)NC(=O)[C@H](CCCNC(=N)N)NC(=O)[C@H]([C@@H](C)O)NC(=O)[C@@H](NC(=O)[C@H](CCC(N)=O)NC(=O)CNC(=O)[C@H](CCC(N)=O)NC(=O)[C@@H](NC(=O)[C@H](C)NC(=O)[C@@H](NC(C)=O)C(C)C)[C@@H](C)O)CSSC[C@@H](C(=O)N2CCC[C@H]2C(=O)N2CCC[C@H]2C(=O)N[C@@H](CCC(N)=O)C(=O)NCC(=O)N[C@@H](Cc2c[nH]c3ccccc23)C(=O)NCC(=O)NCCOCCOCCOCCOCCOCCOCCC(N)=O)NC1=O [Acetyl‐MI] (Ac-VATQGQCTRWPWMCPPQGWG[PEG6]-NH2; disulfide 7-14)
[1]
  Interaction with D‐glucamine in ARS competition assay: nonbinding
myostatin; HEK SBE luciferase reporter cells, 4 nM myostatin, 48 h, 37 °C, n = 3, read-out: IC50, inhibition of myostatin‐induced SMAD phosphorylation
  IC50: 1700 nM

## O=C(O)c1ccc(B(O)O)cc1 [CPBA, 4‐Carboxy‐phenyl‐boronic acid, reference compound]
[2]
  Association constant K eq with ARS: 1.46 ± 0.3 mM⁻¹
[1]
  Association constant K eq with D‐glucamine: 2.09 mM⁻¹ and 2.09 ± 0.6 mM⁻¹
[3]
  Association constant K eq with D‐(‐)‐fructose: 0.11 ± 0.0 mM⁻¹
[4]
  Association constant K eq with D‐mannitol: 0.08 ± 0.0 mM⁻¹

## CSCC[C@@H]1NC(=O)[C@H](Cc2c[nH]c3ccccc23)NC(=O)[C@@H]2CCCN2C(=O)[C@H](Cc2c[nH]c3ccccc23)NC(=O)[C@H](CCCNC(=N)N)NC(=O)[C@H]([C@@H](C)O)NC(=O)[C@@H](NC(=O)[C@H](CCC(N)=O)NC(=O)CNC(=O)[C@H](CCC(N)=O)NC(=O)[C@@H](NC(=O)[C@H](C)NC(=O)[C@@H](NC(=O)CCOCCOCCOCCOCCOCCOCCNC(=O)c2ccc(B(O)O)cc2)C(C)C)[C@@H](C)O)CSSC[C@@H](C(=O)N2CCC[C@H]2C(=O)N2CCC[C@H]2C(=O)N[C@@H](CCC(N)=O)C(=O)NCC(=O)N[C@@H](Cc2c[nH]c3ccccc23)C(=O)NCC(=O)NCCOCCOCCOCCOCCOCCOCCC(N)=O)NC1=O [CPBA‐PEG‐MI] ({Benzoyl(4-B(OH)2)-PEG6}-VATQGQCTRWPWMCPPQGWG[PEG6]-NH2; disulfide 7-14)
[1]
  Interaction with D‐glucamine in ARS competition assay: strongest interaction
[3]; [8]
  Displacement of ARS from the peptide complex by D‐(‐)‐fructose: not able to displace ARS
[4]; [8]
  Displacement of ARS from the peptide complex by D‐mannitol: not able to displace ARS
myostatin
  IC50: 1500 nM
[5]
  Shift of the absorbance maximum of ARS upon ester formation: shift of the absorbance maximum of ARS to shorter wavelengths

## OB(O)c1ccccc1 [phenylboronic acid]
[6]
  pKA: 8.8
[6]; pH of 7
  Binding constant with ARS at binding optimum: 1.1 mM⁻¹

## CPBA–NQEQVSPL–5/6‐carboxyrhodamine 110
[7]; 100 μM, three hours at pH 9.4, washed at pH 4.1, 7.4, 8.0 or 9.4
  pH‐dependent binding to glycan structures of the ECM compared with FL2: comparable pH‐dependent binding behavior
[7]; pH 7.4 wash
  Binding to CDM at pH 7.4 compared with FL2: quantitatively weaker

## NQEQVSPL [CPBA‐peptide]
[2]
  Association constant K eq with ARS: 2.35 ± 0.1 mM⁻¹
[2]; pH 7.4, CPBA‐peptide versus CPBA
  Association constant with ARS relative to unconjugated CPBA: 1.6 fold
[1]
  Association constant K eq with D‐glucamine: 3.87 ± 0.7 mM⁻¹
[3]
  Association constant K eq with D‐(‐)‐fructose: 0.29 ± 0.0 mM⁻¹
[4]
  Association constant K eq with D‐mannitol: 0.22 ± 0.0 mM⁻¹
